Measurements as given in ChEMBL document CHEMBL1201862, “PubChem BioAssay data set” (2004).
Each block holds one compound with its values, some of them ahead of it. Calls of active or inactive are those of the source.

Columns and labels:
[1] = activation of miR-122 Renilla sensor silencing – cell-based, Huh7 psiCHECK-miR122, Renilla luciferase, cherry-picked, dose response (AID 651956); format: functional;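 note: huh7 hepatoma cells stably carrying a psiCHECK-2 miR-122 sensor plasmid; renilla luciferase signal reporting endogenous miR-122 activity after 48 h compound exposure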
[2] = target: T1, Estrogen receptor beta (Homo sapiens, UniProt Q92731);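 note: recombinant ER-beta bound to coactivator SRC1 peptide in presence of estradiol agonist; inhibitors block coactivator peptide binding and lower the FRET signal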
[3] = target: T2, Small ubiquitin-related modifier 1 (Homo sapiens, UniProt P63165); assay: SUMO1 protein interaction blockers, potency – biochemical, fluorescence polarization, uHTS hits, dose response (AID 624382); format: functional; settings: read-out: IC50_Mean
[4] = target: T2, Small ubiquitin-related modifier 1; assay: SUMO1 protein-protein binding blockers, potency – biochemical, FRET, dose response (AID 624383); format: functional; settings: read-out: IC50_Mean
[5] = target: Estrogen receptor (Homo sapiens, UniProt P03372);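 note: potency for inhibiting coactivator peptide recruitment to the receptor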
[6] = target: T1, Estrogen receptor beta; assay: blockers of SRC-3 recruitment to ERβ – biochemical, ELISA, streptavidin-HRP readout, orthogonal assay, confirmation (AID 1060)
[7] = system: HEK293; assay: EBV LMP1 TES2 canonical NF-kB signalling blockers – cell-based, HEK293, luciferase, cherry-pick, dose response (AID 588343); format: functional; settings: Homo sapiens
[8] = target: T3, Interleukin-8 (Homo sapiens, UniProt P10145); assay: Dose Response confirmation of uHTS small molecule hits for cystic fibrosis induced NFkb Inhibitors in a TNFa-induced IL8 counterscreen.; format: functional; settings: read-out: IC50_Mean
[9] = target: T3, Interleukin-8; assay: Dose Response confirmation of uHTS small molecule hits for cystic fibrosis induced NFkb Inhibitors in a PAF-induced IL8 counterscreen.; format: functional; settings: read-out: IC50_Mean
[10] = inhibition of ARNT PAS-B/TACC3 complex formation – biochemical, AlphaScreen, cherry-picked samples, confirmation (AID 651703); format: functional, Homo sapiens;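 note: His-tagged ARNT PAS-B domain paired with GST-TACC3 E629A dimer coactivator fragment; potency of inhibitors that break up the complex and lower AlphaScreen signal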
[11] = target: T4, Short transient receptor potential channel 4 (Mus musculus, UniProt Q9QUQ5); assay: calcium entry via TRPC4 opening agents – cell-based, HEK293 TRPC4/mu-opioid, Fluo-4 calcium, dose response (AID 434937); format: functional
T4 sequence (Q9QUQ5 whole entry): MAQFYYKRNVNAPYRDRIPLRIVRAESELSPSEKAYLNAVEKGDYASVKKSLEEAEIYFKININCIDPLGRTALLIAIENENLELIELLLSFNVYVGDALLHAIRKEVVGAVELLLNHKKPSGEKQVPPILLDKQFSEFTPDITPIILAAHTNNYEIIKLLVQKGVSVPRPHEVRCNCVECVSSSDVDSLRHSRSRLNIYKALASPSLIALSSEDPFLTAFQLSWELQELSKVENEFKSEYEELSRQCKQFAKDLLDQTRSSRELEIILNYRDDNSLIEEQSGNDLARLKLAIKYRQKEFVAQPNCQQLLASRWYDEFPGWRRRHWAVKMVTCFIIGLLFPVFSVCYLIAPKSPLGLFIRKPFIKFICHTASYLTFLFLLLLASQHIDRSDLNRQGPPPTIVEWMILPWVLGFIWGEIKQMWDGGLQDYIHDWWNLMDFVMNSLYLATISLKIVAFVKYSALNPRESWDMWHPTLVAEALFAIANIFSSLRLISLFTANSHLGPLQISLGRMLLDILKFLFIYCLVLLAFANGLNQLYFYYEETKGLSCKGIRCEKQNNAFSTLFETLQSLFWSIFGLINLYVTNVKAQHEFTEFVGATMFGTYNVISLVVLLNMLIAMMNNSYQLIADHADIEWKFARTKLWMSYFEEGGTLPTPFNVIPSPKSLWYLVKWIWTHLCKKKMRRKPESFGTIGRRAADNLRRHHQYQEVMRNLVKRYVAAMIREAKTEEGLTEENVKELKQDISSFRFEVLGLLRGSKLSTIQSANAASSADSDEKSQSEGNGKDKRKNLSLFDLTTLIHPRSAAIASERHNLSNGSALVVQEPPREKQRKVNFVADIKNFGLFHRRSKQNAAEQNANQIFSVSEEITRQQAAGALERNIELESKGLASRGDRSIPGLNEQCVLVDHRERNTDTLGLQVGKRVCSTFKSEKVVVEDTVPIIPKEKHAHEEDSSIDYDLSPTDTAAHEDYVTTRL

[12] = target: T4, Short transient receptor potential channel 4; assay: block of DAMGO-driven TRPC4 calcium entry – cell-based, HEK293 TRPC4/mu-opioid, Fluo-4 calcium, dose response (AID 434942); format: functional;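 note: potency of inhibitors blocking the TRPC4 calcium response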
[13] = target: Beta Lactamase (Pseudomonas aeruginosa, UniProt Q932Y6); assay: BLA reporter interference, concentration series – BLA reporter cells, FRET fluorescence, artefact control for NOD2-RIPK2 interaction inhibitor project, dose response (AID 651552); format: functional, cell-based
[14] = target: Paired box protein Pax-8 (Homo sapiens, UniProt Q06710); assay: PAX8 transcriptional activity inhibition in RMG-I – RMG-I cells, luciferase, cherry-pick, dose response (AID 687027); format: functional, cell-based;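 note: luciferase reporter driven by Pax8 target thyroperoxidase promoter measured by SteadyGlo luminescence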
[15] = viability loss in HeLa cells – cytotoxicity control for MgcRacGAP inhibitor project, dose response (AID 624300); format: functional
[16] = target: Heat shock protein HSP 90-alpha (Homo sapiens, UniProt P07900); format: functional, organism-based
[17] = target: T5, Rac GTPase-activating protein 1 (Homo sapiens, UniProt Q9H0H5); assay: blockers of MgcRacGAP-driven Rac1 GTP hydrolysis – biochemical, ADP Hunter fluorescence, primary and confirmatory, confirmation (AID 624330); format: functional
T5 sequence (Q9H0H5 whole entry): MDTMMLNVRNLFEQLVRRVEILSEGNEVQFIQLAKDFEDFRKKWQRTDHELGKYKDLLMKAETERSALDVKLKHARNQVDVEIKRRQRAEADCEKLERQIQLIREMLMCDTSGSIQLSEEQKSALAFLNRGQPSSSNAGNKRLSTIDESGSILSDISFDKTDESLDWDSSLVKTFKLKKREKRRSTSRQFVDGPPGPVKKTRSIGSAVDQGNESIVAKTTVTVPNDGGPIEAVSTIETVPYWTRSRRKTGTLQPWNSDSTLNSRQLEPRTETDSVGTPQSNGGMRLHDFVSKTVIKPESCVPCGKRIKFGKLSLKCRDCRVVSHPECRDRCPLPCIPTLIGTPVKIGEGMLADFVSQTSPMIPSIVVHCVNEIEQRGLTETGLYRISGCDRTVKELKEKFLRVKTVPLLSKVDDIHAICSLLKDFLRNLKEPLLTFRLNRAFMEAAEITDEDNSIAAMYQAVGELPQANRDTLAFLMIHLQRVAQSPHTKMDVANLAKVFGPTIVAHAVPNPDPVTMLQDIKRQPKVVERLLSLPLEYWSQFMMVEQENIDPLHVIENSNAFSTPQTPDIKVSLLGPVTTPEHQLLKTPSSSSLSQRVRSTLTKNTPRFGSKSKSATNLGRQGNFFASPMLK

[18] = Fluorescence-based cell-based high throughput dose response assay for inhibitors of the interaction of nucleotide-binding oligomerization domain containing 2 (NOD2) and the receptor-interacting serine-threonine kinase 2 (RIPK2).; format: functional; settings: Homo sapiens

T3 sequence (P10145 whole entry): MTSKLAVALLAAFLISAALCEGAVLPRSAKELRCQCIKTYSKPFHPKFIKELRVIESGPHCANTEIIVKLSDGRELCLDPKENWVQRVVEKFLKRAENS
T2 sequence (P63165 whole entry): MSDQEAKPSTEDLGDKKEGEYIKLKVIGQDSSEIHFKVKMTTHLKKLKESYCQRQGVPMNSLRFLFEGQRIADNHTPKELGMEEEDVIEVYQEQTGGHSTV
T1 sequence (Q92731 whole entry): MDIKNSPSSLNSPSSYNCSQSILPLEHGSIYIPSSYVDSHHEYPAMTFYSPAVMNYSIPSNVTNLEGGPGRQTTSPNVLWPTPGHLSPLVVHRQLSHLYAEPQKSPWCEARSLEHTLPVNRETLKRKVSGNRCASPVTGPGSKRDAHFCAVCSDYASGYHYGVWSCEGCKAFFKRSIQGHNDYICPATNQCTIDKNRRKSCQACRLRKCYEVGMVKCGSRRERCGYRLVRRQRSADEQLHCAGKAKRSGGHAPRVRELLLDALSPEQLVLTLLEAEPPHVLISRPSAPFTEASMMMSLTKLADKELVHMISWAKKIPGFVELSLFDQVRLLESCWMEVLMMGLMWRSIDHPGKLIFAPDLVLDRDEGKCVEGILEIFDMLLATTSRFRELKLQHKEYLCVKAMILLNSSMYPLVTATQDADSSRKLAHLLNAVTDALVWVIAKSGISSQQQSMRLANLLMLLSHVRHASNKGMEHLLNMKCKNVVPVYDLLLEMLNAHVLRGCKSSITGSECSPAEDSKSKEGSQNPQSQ
Chain of Paired box protein Pax-8 (Q06710 whole entry): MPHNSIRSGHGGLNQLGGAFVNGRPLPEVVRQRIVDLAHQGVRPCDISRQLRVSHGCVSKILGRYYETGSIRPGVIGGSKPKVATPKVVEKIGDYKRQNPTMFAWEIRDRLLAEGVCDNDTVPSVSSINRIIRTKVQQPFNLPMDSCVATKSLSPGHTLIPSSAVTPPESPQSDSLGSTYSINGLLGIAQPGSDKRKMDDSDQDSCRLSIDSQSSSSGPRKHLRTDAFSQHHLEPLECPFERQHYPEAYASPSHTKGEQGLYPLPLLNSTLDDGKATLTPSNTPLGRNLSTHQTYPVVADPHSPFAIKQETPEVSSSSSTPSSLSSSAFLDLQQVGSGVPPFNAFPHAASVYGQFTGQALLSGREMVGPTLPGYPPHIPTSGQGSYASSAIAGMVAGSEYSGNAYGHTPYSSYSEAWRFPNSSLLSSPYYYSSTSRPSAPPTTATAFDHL
Chain of Beta Lactamase (Q932Y6 whole entry): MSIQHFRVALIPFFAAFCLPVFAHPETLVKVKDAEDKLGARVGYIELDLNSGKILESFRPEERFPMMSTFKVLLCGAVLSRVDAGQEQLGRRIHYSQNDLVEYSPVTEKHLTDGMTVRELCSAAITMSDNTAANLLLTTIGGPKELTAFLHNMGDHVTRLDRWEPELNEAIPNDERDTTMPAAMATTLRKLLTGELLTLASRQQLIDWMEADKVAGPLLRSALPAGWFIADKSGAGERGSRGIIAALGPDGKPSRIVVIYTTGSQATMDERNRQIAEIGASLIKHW
Chain of Estrogen receptor (P03372 whole entry): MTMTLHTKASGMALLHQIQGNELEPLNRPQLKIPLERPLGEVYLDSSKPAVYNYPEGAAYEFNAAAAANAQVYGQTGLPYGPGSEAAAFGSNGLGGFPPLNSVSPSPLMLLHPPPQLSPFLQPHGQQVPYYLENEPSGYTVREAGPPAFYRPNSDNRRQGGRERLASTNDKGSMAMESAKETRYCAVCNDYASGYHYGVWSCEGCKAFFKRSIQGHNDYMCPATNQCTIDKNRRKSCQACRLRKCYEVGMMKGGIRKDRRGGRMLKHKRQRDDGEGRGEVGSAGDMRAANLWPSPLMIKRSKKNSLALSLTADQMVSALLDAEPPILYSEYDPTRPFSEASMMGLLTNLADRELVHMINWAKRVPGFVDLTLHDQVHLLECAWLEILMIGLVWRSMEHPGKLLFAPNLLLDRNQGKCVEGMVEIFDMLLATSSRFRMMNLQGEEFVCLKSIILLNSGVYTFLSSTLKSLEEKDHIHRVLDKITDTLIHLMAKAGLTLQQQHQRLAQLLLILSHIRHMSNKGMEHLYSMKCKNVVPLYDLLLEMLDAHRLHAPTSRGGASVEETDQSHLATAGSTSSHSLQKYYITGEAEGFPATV

SMILES: CC(C)OCCCNC(=O)c1ccncc1
AC50 [1]: 37.6 µM (active)

SMILES: Cc1nc2cc(-c3ccsc3-n3c(C)ccc3C)nn2c(O)c1Cl
IC50 [2]: 7.66 µM (active)
IC50 [3]: > 66.6 µM (inactive)
IC50 [4]: 10.7 µM (active)
IC50 [5]: 27.5 µM (active)
IC50 [6]: 1.53 µM (not active)

SMILES: Cc1cc(N2CCOCC2)c2c(N)c(Br)cc(C)c2n1
AC50 [7]: 8.08 µM (active)
IC50 [8]: > 79 µM (inactive)
IC50 [9]: 8.34 µM (active)

EC50 [11]: 0.267 µM (active)
EC50 [12]: 0.299 µM (active)
SMILES: COc1cccc(CNCc2ccccn2)c1OC
AC50 [10]: 116 µM (active)

SMILES: O=C1/C(=C\c2ccc(Cl)c(Cl)c2)CN(C(=O)CCN2CCOCC2)C/C1=C/c1ccc(Cl)c(Cl)c1
IC50 [13]: 31.4 µM (inactive)
AC50 [14]: 2.65 µM (active)
CC50 [15]: 16.9 µM (active)
AC50 [16]: 2.98 µM (active)
IC50 [17]: 121 µM (active)
IC50 [18]: 0.614 µM (active)
